Laboratory results published in US6664235B1, “Medicaments comprising sialic acid derivatives as active ingredients” (priority 1999, dated 2003).
Like-named read-outs stand apart in the source and are kept apart here.

What was measured:
[1] = target: Clostridium perfringens sialidase (Clostridium perfringens, UniProt A0A0H2YQR1); assay type: biochemical
[2] = Test of resistance to acid hydrolysis (1H NMR); settings: for half-life: 1.0 N D2SO4/D2O, pH 1.37
[3] = system: sialidase of influenza virus A/Singapore/1/57 (H2N2); assay type: biochemical, human isolate; settings: read-out: Inhibitory activity (IC50, μM) 4-MU-Neu5Ac as substrate
[4] = system: sialidase of influenza virus A/Aichi/2/68 (H3N2); assay type: biochemical, human isolate
[5] = system: sialidase of influenza virus A/duck/36/4/76 (H1N1); assay type: biochemical, avian isolate; settings: read-out: Inhibitory activity (IC50, μM) 4-MU-Neu5Ac as substrate
[6] = system: sialidase of influenza virus A/duck/849/3/80 (H4N1); assay type: biochemical, avian isolate
[7] = system: sialidase of influenza virus A/duck/13/2/76 (H6N1); assay type: biochemical, avian isolate
[8] = system: sialidase of influenza virus A/duck/33/3/76 (H10N1); assay type: biochemical, avian isolate
[9] = system: sialidase of influenza virus A/duck/273/8/78 (H2N2); assay type: biochemical, avian isolate
[10] = system: sialidase of influenza virus A/duck/24/5/76 (H3N2); assay type: biochemical, avian isolate
[11] = system: sialidase of influenza virus A/duck/47/5/76 (H7N2); assay type: biochemical, avian isolate
[12] = system: sialidase of influenza virus A/duck/86/1/76 (H9N2); assay type: biochemical, avian isolate
[13] = system: sialidase of influenza virus A/duck/44/3/76 (H11N3); assay type: biochemical, avian isolate
[14] = system: sialidase of influenza virus A/duck/862/5/80 (H12N5); assay type: biochemical, avian isolate
[15] = system: sialidase of influenza virus A/swine/Hokkaido/2/81 (H1N1); assay type: biochemical, swine isolate; settings: read-out: Inhibitory activity (IC50, μM) Neu5Ac-DSPE as substrate
[16] = system: sialidase of influenza virus A/swine/Italy/309/83 (H3N2); assay type: biochemical, swine isolate
[17] = system: influenza virus A/PR/8/34 (H1N1) hemagglutinin; test: Hemagglutination inhibitory assay with human erythrocytes; assay type: cell-based; settings: lowest concentration that completely inhibited agglutination; viruses 2^4 HA units, 4° C., 1 hour
[18] = system: influenza virus A/Aichi/2/68 (H3N2) strain; test: Inhibition of infection of influenza virus to MDCK cells (LDH release, cytopathic effect); assay type: cell-based; settings: LDH released from infected cells
[19] = system: influenza virus A/Aichi/2/68 (H3N2) strain; assay type: cell-based; settings: read-out: IC50, early stage of infection
[20] = system: influenza virus A/Aichi/2/68 (H3N2) strain; assay type: cell-based; settings: read-out: IC50 of prevention of cytopathic effects, late stage
[21] = target: sialidase of influenza virus A/PR/8/34 (H1N1) (Influenza A virus, UniProt P03468)
[22] = system: influenza virus A/Aichi/2/68 (H3N2); assay type: binding
[23] = read-out: Inhibitory activity (IC50, μM) 4-MU-Neu5Ac as substrate
[24] = read-out: Inhibitory activity (IC50, μM) Neu5Ac-DSPE as substrate

CC(=O)NC1C(O)C(O)C(Oc2ccc([N+](=O)[O-])cc2)(C(=O)O)OC1C(O)C(O)CO (centres unmarked) [Compound 3]
Ki (M) NA (C. perfringens) [1]: Very weak
half-life [2]: 23 h

CCCCCCCCCCCCCCCCCC(=O)CC(COC(=O)CCCCCCCCCCCCCCCCC)COP(=O)(O)OCCNCCOC1(C(=O)O)OC(C(O)C(O)CO)C(NC(C)=O)C(O)C1F (centres unmarked) [Compound 9]
IC50 [3]: 15.6 µM
virus sialidase activity inhibition [4]: completely inhibited
IC50 [4, 23]: 31.3 µM
IC50 [4, 24]: 31.3 µM
IC50 [5]: 125 µM
IC50 [6, 23]: 125 µM
IC50 [6, 24]: 125 µM
IC50 [7, 23]: 150 µM
IC50 [7, 24]: 180 µM
IC50 [8, 23]: 500 µM
IC50 [8, 24]: 250 µM
IC50 [9, 23]: 150 µM
IC50 [9, 24]: 125 µM
IC50 [10, 23]: 180 µM
IC50 [10, 24]: 100 µM
IC50 [11, 23]: 200 µM
IC50 [11, 24]: 150 µM
IC50 [12, 23]: 180 µM
IC50 [12, 24]: 125 µM
IC50 [13, 23]: 250 µM
IC50 [13, 24]: 75 µM
IC50 [14, 23]: 125 µM
IC50 [14, 24]: 100 µM
IC50 [15]: 125 µM
IC50 [16, 23]: 125 µM
IC50 [16, 24]: 150 µM
HAI (M) H1N1 [17]: 0.001 M
IC50 [18]: 5.6 µM
IC50 [19]: 14 µM
IC50 [20]: ~40 µM
virus sialidase activity inhibition [21]: completely inhibited
IC50 [21, 24]: 31.3 µM

CCCCCCCCCCCCCCCCCC(=O)CC(COC(=O)CCCCCCCCCCCCCCCCC)COP(=O)(O)OCCNCCOC1(C(=O)O)CC(O)C(NC(C)=O)C(C(O)C(O)CO)O1 (centres unmarked) [Compound 6]
Binding assay (%) H3N2 [22]: 25%
HAI (M) H1N1 [17]: 0.001 M

CCCCCCCCCCCCCCCCCC(=O)CC(COC(=O)CCCCCCCCCCCCCCCCC)COP(=O)(O)OCCNCCOC1(C(=O)O)OC(C(O)C(O)CO)C(NC(C)=O)C(O)C1O (centres unmarked) [Compound 7]
affinity to H3 type virus HA relative to Compound 6 [22]: 144%
HAI (M) H1N1 [17]: 0.001 M

CC(=O)NC1C(O)C(F)C(Oc2ccc([N+](=O)[O-])cc2)(C(=O)O)OC1C(O)C(O)CO (centres unmarked) [Compound 5]
half-life [2]: 48 h

CCCCCCCCCCCCCCCCCC(=O)CC(COC(=O)CCCCCCCCCCCCCCCCC)COP(=O)(O)OCCNCCOC1(C(=O)O)OC(C(O)C(O)CO)C(NC(C)=O)C(O)C1O (centres unmarked) [Compound 8]
HAI (M) H1N1 [17]: >0.001 M

CC(=O)NC1C(O)CC(Oc2ccc([N+](=O)[O-])cc2)(C(=O)O)OC1C(O)C(O)CO (centres unmarked) [Compound 2]
Hydrolysis T½ (hour) 1N sulfuric acid 50° C. ([2]; 1N sulfuric acid, 50° C.): 0.15 h
